According to patent US12077501B2, “Compounds and compositions for intracellular delivery of agents” (ModernaTX, Inc., priority 2017, dated 2024):

How the values were obtained:
[1] = tested on: hEPO expression; test: hEPO (miR126 + miR142) mRNA expression, Tables 8b-8e; format: in vivo
[2] = Particle size and polydispersity index of nanoparticle compositions (Zetasizer Nano ZS); format: physicochemical; conditions: Formulated with lipid:Chol:DOPE:PEG 1 40:38.5:20:1.5
Experimental: A Zetasizer Nano ZS (Malvem Instruments Ltd, Malvem, Worcestershire, UK) can be used to determine the particle size, the polydispersity index (PDI) and the zeta potential of the nanoparticle compositions in 1×PBS in determining particle size and 15 mM PBS in determining zeta potential.

[3] = Lipid clearance: % dose remaining, Tables 7c and 8b-8e (species not given); format: in vivo
Source text: In contrast, hEPO expression in rats induced by administration of a nanoparticle composition including a compound according to one of formulae (I), (Ia1)-(Ia6), (Ib), (II), (IIa), (III), and (IIIa) was substantially […] than that measured for MC3. […] Tables 7c and 7d show additional protein expressions and clearance data from compositions with various compounds disclosed herein as compared to with MC3. Tables 7e, 7f and 7g show hEPO expression data in CD-1 mice at a dose of 0.5 mpk.

[4] = Encapsulation efficiency of RNA (QUANT-IT RIBOGREEN RNA assay); format: physicochemical; conditions: Formulated with lipid:Chol:DOPE:PEG 1 40:38.5:20:1.5
Procedure, shortened: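 RiboGreen fluorescence (ex about 480, em about 520 nm) compares nanoparticle samples left intact versus disrupted with 2% Triton X-100 (15 min, 37° C). Samples are first brought to roughly 5 μg/mL in 10 mM Tris-HCl, 1 mM EDTA, pH 7.5; percent free RNA equals the blank-corrected intact/disrupted signal ratio.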

[5] = lipid:Chol:PEG 1 50:47.5:2.5, Table 8e

Compound | AUC ([1]; Table 8b) [pg·h/mL] | PDI ([2]; Table 1d) | Size (nm) ([2]; Table 1d) | % Dose Remaining (liver, 24 h) ([3]; Table 8b) [%] | EE (%) ([4]; Table 1d) | AUC ([1]; Table 8c) [pg·h/mL] | PDI ([2]; Table 1e) | Size (nm) ([2]; Table 1e) | % Dose Remaining (liver, 24 h) ([3]; Table 8c) [%] | EE (%) ([4]; Table 1e) | further results
CCCC/C=C\CCCCCCCCN(CCCOC(=O)CCCCCCCCC)CC(=O)N1CCN(C(=O)CN(CCCCCCCCC)CCN(CCCCCCCCC)CCCCCCCCC)CC1 [Compound 140, (Z)-3-((2-(4-(N-(2-(Dinonylamino)ethyl)-N-nonylglycyl)piperazin-1-yl)-2-oxoethyl)(tetradec-9-en-1-yl)amino)propyl Decanoate] | 4.55e+07 | 0.14 | 131.1 | 1.66 | 86.9 | – | – | – | – | – | –
CCCCCCCCCCCCCCN(C/C=C\COC(=O)CCCCCCCC)CC(=O)N1CCN(C(=O)CN(CCCCCCCCC)CCN(CCCCCCCCC)CCCCCCCCC)CC1 [Compound 141, (Z)-4-((2-(4-(N-(2-(dinonylamino)ethyl)-N-nonylglycyl)piperazin-1-yl)-2-oxoethyl)(tetradecyl)amino)but-2-en-1-yl nonanoate] | 2.7e+07 | 0.15 | 131.5 | 1.41 | 97.6 | – | – | – | – | – | –
CCCCCCCCCN(CCCCCCCCC)CCN(CCCCCCCCC)CC(=O)NCCNC(=O)CN(CCCCCCCCC)CCCCCCCCC [Compound 153, 2-(dinonylamino)-N-(2-(2-((2-(dinonylamino)ethyl)(nonyl)amino)acetamido)ethyl)acetamide] | 5.62e+07 | 0.23 | 116.7 | 84.71 | 97.2 | – | – | – | – | – | –
CCCCC/C=C\CCN(CC/C=C\CCCCC)CCN(CC/C=C\CCCCC)CC(=O)N(C)CCN(C)C(=O)CN(CCCCCCCCC)CCCCCCCCC [Compound 154, 2-((2-(di((Z)-non-3-en-1-yl)amino)ethyl)((Z)-non-3-en-1-yl)amino)-N-(2-(2-(dinonylamino)-N-methylacetamido)ethyl)-N-methylacetamide] | 1.37e+08 | 0.18 | 103.3 | 78.44 | 97.8 | – | – | – | – | – | –
CCCCCCCCCN(CCCCCCCCC)CCN(CCCCCCCCC)CC(=O)N(C)CCCN(C)C(=O)CN(CCCCCCCCC)CCCCCCCCC [Compound 155, 2-(dinonylamino)-N-(3-(2-((2-(dinonylamino)ethyl)(nonyl)amino)-N-methylacetamido)propyl)-N-methylacetamide] | 8.89e+07 | 0.22 | 84.4 | 78.61 | 98.4 | – | – | – | – | – | –
CCCCCCCCCN(CCCCCCCCC)CCN(CCCCCCCCC)CC(=O)N(CC)CCN(CC)C(=O)CN(CCCCCCCCC)CCCCCCCCC [Compound 157, 2-(dinonylamino)-N-(2-(2-((2-(dinonylamino)ethyl)(nonyl)amino)-N-ethylacetamido)ethyl)-N-ethylacetamide] | 2.08e+08 | 0.11 | 89.8 | 42.48 | 98.3 | – | – | – | – | – | –
CCCCCCCCCCCCCCN(CCCOC(=O)CCCCCCCCC)CC(=O)N(C)CCN(C)C(=O)CN(CCCCCCCCC)CCN(CCCCCCCCC)CCCCCCCCC [Compound 158, 7,10-dimethyl-13,16-dinonyl-6,11-dioxo-4-tetradecyl-4,7,10,13,16-pentaazapentacosyl Decanoate] | 1.03e+07 | 0.20 | 124.2 | 0.30 | 97.8 | – | – | – | – | – | –
CCCCCCCCCN(CCCCCCCCC)CCCCCCCCN(CCCCCCCCC)CCN(CCCCCCCCC)CCCCCCCCC [Compound 160, N^1-(2-(dinonylamino)ethyl)-N^1,N^8,N^8-trinonyloctane-1,8-diamine] | 219000 | 0.25 | 115.5 | 60.54 | 97.3 | – | – | – | – | – | –
CCCCCCCCCN(CCCCCCCCC)CCCOCCCN(CCCCCCCCC)CCN(CCCCCCCCC)CCCCCCCCC [Compound 161, N^1-(3-(3-(dinonylamino)propoxy)propyl)-N^1,N^2,N^2-trinonylethane-1,2-diamine] | – | – | – | – | – | 128000 | 0.17 | 61.8 | 113.64 | 97.8 | –
CCCCCCCCCCNC(=O)CN(CCCCCCCCC)CCN(CCCCCCCCC)CCCCCCCCC [Compound 162, N-decyl-2-((2-(dinonylamino)ethyl)(nonyl)amino)acetamide] | – | – | – | – | – | 2.3e+07 | 0.23 | 73.1 | 63.12 | 98.4 | –
CCCCCCCCCCCCCCNC(=O)CN(CCCCCCCCC)CCN(CCCCCCCCC)CCCCCCCCC [Compound 163, 2-((2-(dinonylamino)ethyl)(nonyl)amino)-N-tetradecylacetamide] | – | – | – | – | – | 1.01e+07 | 0.23 | 88.6 | 65.12 | 98.1 | –
CCCCCCCCCCN(CCCCCCCCCC)CCCCC(=O)N1CCN(C(=O)CCCCN(CCCCCCCCCC)CCCCCCCCCC)CC1 [Compound 164, 1,1′-(Piperazine-1,4-diyl)bis(5-(didecylamino)pentan-1-one)] | – | – | – | – | – | 4.09e+06 | 0.15 | 74.4 | 40.18 | 97.7 | –
CCCCCCCCCN(CCCCCCCCC)CCN(CCCCCCCCC)CC(=O)NCCCCOC(=O)CCCC [Compound 165, 4-(2-((2-(dinonylamino)ethyl)(nonyl)amino)acetamido)butyl pentanoate] | – | – | – | – | – | 9.38e+07 | 0.22 | 107.8 | 0.13 | 97.0 | –
CCCCCCCCCOC(=O)CN(CCCCCCCCC)CCN(CCCCCCCCC)CCCCCCCCC [Compound 166, Nonyl N-(2-(dinonylamino)ethyl)-N-nonylglycinate] | – | – | – | – | – | 0 | 0.24 | 59.4 | 75.26 | 97.1 | –
CCCCCCCCCCCCCCOC(=O)CN(CCCCCCCCC)CCN(CCCCCCCCC)CCCCCCCCC [Compound 167, Tetradecyl N-(2-(dinonylamino)ethyl)-N-nonylglycinate] | – | – | – | – | – | 0 | 0.22 | 64.5 | 89.60 | 97.6 | –
CCCCCCCCCN(CCCCCCCCC)CCN(CCCCCCCCC)CCOC(=O)CCCCCCCC [Compound 168, 2-((2-(Dinonylamino)ethyl)(nonyl)amino)ethyl Nonanoate] | – | – | – | – | – | 0 | 0.17 | 60.0 | 2.74 | 97.3 | –
CCCCCCCCCCCCCC(=O)OCCN(CCCCCCCCC)CCN(CCCCCCCCC)CCCCCCCCC [Compound 169, 2-((2-(Dinonylamino)ethyl)(nonyl)amino)ethyl Tetradecanoate] | – | – | – | – | – | 0 | 0.24 | 72.5 | 0.30 | 97.6 | –
CCCCCCCCCOC(=O)CCCCCCCN(CCCCCCCC(=O)OC(CCCCCCCC)CCCCCCCC)CCOCCN(CCCCCCCCC)CCCCCCCCC [Compound 180, Heptadecan-9-yl 8-((2-(2-(dinonylamino)ethoxy)ethyl)(8-(nonyloxy)-8-oxooctyl)amino)octanoate] | – | – | – | – | – | – | – | – | – | – | AUC (mIU/mL*h) [1, 5]: 6.53E+07 mIU/mL*h; % Dose Remaining (liver, 24 h) [3, 5]: 50.47%
CCCCCCCCCOC(=O)CCCCCCCN(CCCCCCCC(=O)OC(CCCCCCCC)CCCCCCCC)CCCCC(=O)N(CC)CCN(CC)C(=O)CCCCN(CCCCCCCC(=O)OCCCCCCCCC)CCCCCCCC(=O)OC(CCCCCCCC)CCCCCCCC [Compound 181, Di(heptadecan-9-yl) 15,18-diethyl-9,24-bis(8-(nonyloxy)-8-oxooctyl)-14,19-dioxo-9,15,18,24-tetraazadotriacontanedioate] | – | – | – | – | – | – | – | – | – | – | AUC ([1]; Table 8d): 1.69e+08 pg·h/mL; PDI ([2]; Table 1f): 0.25; Size (nm) ([2]; Table 1f): 129.9 nm; % Dose Remaining (liver, 24 h) ([3]; Table 8d): 2.51%; EE (%) ([4]; Table 1f): 97.7%
CCCCCCCCCOC(=O)CCCCCCCN(CCCCCCCC(=O)OC(CCCCCCCC)CCCCCCCC)CCCCC(=O)N(C)CCCN(C)C(=O)CCCCN(CCCCCCCC(=O)OCCCCCCCCC)CCCCCCCC(=O)OC(CCCCCCCC)CCCCCCCC [Compound 182, Di(heptadecan-9-yl) 15,19-dimethyl-9,25-bis(8-(nonyloxy)-8-oxooctyl)-14,20-dioxo-9,15,19,25-tetraazatritriacontanedioate] | – | – | – | – | – | – | – | – | – | – | AUC ([1]; Table 8d): 6.06e+07 pg·h/mL; PDI ([2]; Table 1f): 0.28; Size (nm) ([2]; Table 1f): 97.7 nm; % Dose Remaining (liver, 24 h) ([3]; Table 8d): 1.64%; EE (%) ([4]; Table 1f): 98.8%
